Patent publication US20220160650A1, “GEL, OINTMENT, AND FOAM FORMULATIONS OF TAPINAROF AND METHODS OF USE” (Dermavant Sciences GmbH, priority 2020, published 2022)

Experiments:
[1] = Purity of tapinarof in individual excipients on storage, related substances HPLC method; format: physicochemical
Summary of the method: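 The stability of the stilbene active ingredient was tested in individual excipients, one excipient per sample. Samples were analysed at time zero and after storage for up to 2 weeks. Purity of the active ingredient was determined by HPLC.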

[2] = Gao et al., Journal of Polymer Research 2011; cited from earlier work
[3] = Saturated solubility of tapinarof in individual excipients, by tapinarof assay HPLC or visually (Table 2); format: physicochemical; conditions: for Average saturated solubility of DMVT-505: visual solubility
Summary of the method: (§1)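 The saturated solubility of the stilbene active ingredient was measured in a range of individual pharmaceutical excipients, one excipient per sample. Each value is the solubility of the active ingredient in that excipient. It was found either by an HPLC assay for the active ingredient or by visual inspection.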

[4] = Tapinarof saturated solubility in excipients (Table 1); format: physicochemical
Summary of the method: as §1

CC(C)c1c(O)cc(/C=C/c2ccccc2)cc1O [tapinarof, 3,5-Dihydroxy-4-isopropyl-trans-stilbene]
Purity of DMVT-505 ([1]; in Almond oil, t = 0): 100.00 % area
Purity of DMVT-505 ([1]; in Almond oil, t = 2 weeks, 40° C.): 99.96 % area
Purity of DMVT-505 ([1]; in Almond oil, t = 2 weeks, 70° C.): 99.84 % area
Purity of DMVT-505 ([1]; in Arlasolve DMI, t = 0): 99.55 % area
Purity of DMVT-505 ([1]; in Arlasolve DMI, t = 2 weeks, 40° C.): 96.75 % area
Purity of DMVT-505 ([1]; in Arlasolve DMI, t = 2 weeks, 70° C.): 95.14 % area
Purity of DMVT-505 ([1]; in Castor oil, t = 0): 100.00 % area
Purity of DMVT-505 ([1]; in Castor oil, t = 2 weeks, 40° C.): 100.00 % area
Purity of DMVT-505 ([1]; in Castor oil, t = 2 weeks, 70° C.): 99.92 % area
Purity of DMVT-505 ([1]; in Crodamol GTCC, t = 0): 99.92 % area
Purity of DMVT-505 ([1]; in Crodamol GTCC, t = 2 weeks, 40° C.): 96.46 % area
Purity of DMVT-505 ([1]; in Crodamol GTCC, t = 2 weeks, 70° C.): 96.94 % area
Purity of DMVT-505 ([1]; in Diethyl sebacate, t = 0): 100.00 % area
Purity of DMVT-505 ([1]; in Diethyl sebacate, t = 2 weeks, 40° C.): 96.72 % area
Purity of DMVT-505 ([1]; in Diethyl sebacate, t = 2 weeks, 70° C.): 95.78 % area
Purity of DMVT-505 ([1]; in Diisopropyl adipate, t = 0): 100.00 % area
Purity of DMVT-505 ([1]; in Diisopropyl adipate, t = 2 weeks, 40° C.): 99.79 % area
Purity of DMVT-505 ([1]; in Diisopropyl adipate, t = 2 weeks, 70° C.): 95.94 % area
Purity of DMVT-505 ([1]; in Dipropylene glycol, t = 0): 99.97 % area
Purity of DMVT-505 ([1]; in Dipropylene glycol, t = 2 weeks, 40° C.): 99.83 % area
Purity of DMVT-505 ([1]; in Dipropylene glycol, t = 2 weeks, 70° C.): 98.89 % area
Purity of DMVT-505 ([1]; in Ethanol, t = 0): 99.89 % area
Purity of DMVT-505 ([1]; in Ethanol, t = 2 weeks, 40° C.): 99.72 % area
Purity of DMVT-505 ([1]; in Ethanol, t = 2 weeks, 70° C.): 98.57 % area
Purity of DMVT-505 ([1]; in Hexylene glycol, t = 0): 99.96 % area
Purity of DMVT-505 ([1]; in Hexylene glycol, t = 2 weeks, 40° C.): 99.54 % area
Purity of DMVT-505 ([1]; in Hexylene glycol, t = 2 weeks, 70° C.): 98.76 % area
Purity of DMVT-505 ([1]; in IPA, t = 0): 99.91 % area
Purity of DMVT-505 ([1]; in IPA, t = 2 weeks, 40° C.): 99.86 % area
Purity of DMVT-505 ([1]; in IPA, t = 2 weeks, 70° C.): 99.25 % area
Purity of DMVT-505 ([1]; in IPM, t = 0): 100.00 % area
Purity of DMVT-505 ([1]; in IPM, t = 2 weeks, 40° C.): 99.32 % area
Purity of DMVT-505 ([1]; in IPM, t = 2 weeks, 70° C.): 92.15 % area
Purity of DMVT-505 ([1]; in IPP, t = 0): 100.00 % area
Purity of DMVT-505 ([1]; in IPP, t = 2 weeks, 40° C.): 99.30 % area
Purity of DMVT-505 ([1]; in IPP, t = 2 weeks, 70° C.): 99.52 % area
Purity of DMVT-505 ([1]; in Jojoba oil, t = 0): 99.97 % area
Purity of DMVT-505 ([1]; in Jojoba oil, t = 2 weeks, 40° C.): 98.98 % area
Purity of DMVT-505 ([1]; in Jojoba oil, t = 2 weeks, 70° C.): 99.09 % area
Purity of DMVT-505 ([1]; in Kollicream ® 3C, t = 0): 100.00 % area
Purity of DMVT-505 ([1]; in Kollicream ® 3C, t = 2 weeks, 40° C.): 98.98 % area
Purity of DMVT-505 ([1]; in Kollicream ® 3C, t = 2 weeks, 70° C.): 96.51 % area
Purity of DMVT-505 ([1]; in Kollicream ® OA, t = 0): 100.00 % area
Purity of DMVT-505 ([1]; in Kollicream ® OA, t = 2 weeks, 40° C.): 99.66 % area
Purity of DMVT-505 ([1]; in Kollicream ® OA, t = 2 weeks, 70° C.): 99.46 % area
Purity of DMVT-505 ([1]; in Kollicream ® OD, t = 0): 100.00 % area
Purity of DMVT-505 ([1]; in Kollicream ® OD, t = 2 weeks, 40° C.): 99.38 % area
Purity of DMVT-505 ([1]; in Kollicream ® OD, t = 2 weeks, 70° C.): 98.11 % area
Purity of DMVT-505 ([1]; in MethoxyPEG 350, t = 0): 99.59 % area
Purity of DMVT-505 ([1]; in MethoxyPEG 350, t = 2 weeks, 40° C.): 98.42 % area
Purity of DMVT-505 ([1]; in MethoxyPEG 350, t = 2 weeks, 70° C.): 95.50 % area
Purity of DMVT-505 ([1]; in Olive oil, t = 0): 100.00 % area
Purity of DMVT-505 ([1]; in Olive oil, t = 2 weeks, 40° C.): 99.91 % area
Purity of DMVT-505 ([1]; in Olive oil, t = 2 weeks, 70° C.): 99.74 % area
Purity of DMVT-505 ([1]; in PEG 200, t = 0): 99.91 % area
Purity of DMVT-505 ([1]; in PEG 200, t = 2 weeks, 40° C.): 99.86 % area
Purity of DMVT-505 ([1]; in PEG 200, t = 2 weeks, 70° C.): 98.56 % area
Purity of DMVT-505 ([1]; in PEG 400, t = 0): 99.87 % area
Purity of DMVT-505 ([1]; in PEG 400, t = 2 weeks, 40° C.): 99.30 % area
Purity of DMVT-505 ([1]; in PEG 400, t = 2 weeks, 70° C.): 98.63 % area
Purity of DMVT-505 ([1]; in Propylene glycol, t = 0): 99.90 % area
Purity of DMVT-505 ([1]; in Propylene glycol, t = 2 weeks, 40° C.): 99.51 % area
Purity of DMVT-505 ([1]; in Propylene glycol, t = 2 weeks, 70° C.): 99.23 % area
Purity of DMVT-505 ([1]; in Sesame oil, t = 0): 100.00 % area
Purity of DMVT-505 ([1]; in Sesame oil, t = 2 weeks, 40° C.): 99.94 % area
Purity of DMVT-505 ([1]; in Sesame oil, t = 2 weeks, 70° C.): 99.67 % area
Purity of DMVT-505 ([1]; in Sorbitan monooleate (Span 80), t = 0): 100.00 % area
Purity of DMVT-505 ([1]; in Sorbitan monooleate (Span 80), t = 2 weeks, 40° C.): 100.00 % area
Purity of DMVT-505 ([1]; in Sorbitan monooleate (Span 80), t = 2 weeks, 70° C.): 99.79 % area
Purity of DMVT-505 ([1]; in Sunflower oil, t = 0): 100.00 % area
Purity of DMVT-505 ([1]; in Sunflower oil, t = 2 weeks, 40° C.): 100.00 % area
Purity of DMVT-505 ([1]; in Sunflower oil, t = 2 weeks, 70° C.): 99.51 % area
Sensitivity to oxidation and photo degradation [2]: sensitive to oxidation and photo degradation
Average saturated solubility of DMVT-505 (mean of n = 3) ([3]; in Almond oil): 11.94 % w/w
Average saturated solubility of DMVT-505 (mean of n = 3) ([3]; in Aloe vera juice): 0.01 % w/w
Average saturated solubility of DMVT-505 (mean of n = 3) ([3]; in Castor oil): 7.06 % w/w
Average saturated solubility of DMVT-505 ([3]; in Dipropylene glycol): ≥20 (visual solubility) % w/w
Average saturated solubility of DMVT-505 ([3]; in Ethanol): ≥20 (visual solubility) % w/w
Average saturated solubility of DMVT-505 ([3]; in Isopropyl myristate): ≥20 (visual solubility) % w/w
Average saturated solubility of DMVT-505 (mean of n = 3) ([3]; in Jojoba oil): 8.19 % w/w
Average saturated solubility of DMVT-505 (mean of n = 3) ([3]; in Kollicream ® 3C (cocoyl caprylocaprate)): 19.03 % w/w
Average saturated solubility of DMVT-505 (mean of n = 3) ([3]; in Kollicream ® OA (oleyl alcohol)): 15.82 % w/w
Average saturated solubility of DMVT-505 (mean of n = 3) ([3]; in Kollicream ® OD (octyldodecanol)): 11.03 % w/w
Average saturated solubility of DMVT-505 ([3]; in MethoxyPEG 350): ≥20 (visual solubility) % w/w
Average saturated solubility of DMVT-505 (mean of n = 3) ([3]; in Olive oil): 11.35 % w/w
Average saturated solubility of DMVT-505 ([3]; in PEG 200): ≥20% (visual solubility) % w/w
Average saturated solubility of DMVT-505 (mean of n = 3) ([3]; in Safflower oil): 11.68 % w/w
Average saturated solubility of DMVT-505 (mean of n = 3) ([3]; in Sesame oil): 11.56 % w/w
Average saturated solubility of DMVT-505 (mean of n = 3) ([3]; in Soyabean oil): 11.68 % w/w
Average saturated solubility of DMVT-505 (mean of n = 3) ([3]; in Sunflower oil): 12.05 % w/w
Average saturated solubility of DMVT-505 (mean of n = 3) ([3]; in Walnut oil): 12.43 % w/w
Solubility (tapinarof saturated solubility) ([4]; in Benzyl alcohol): 193 mg/g
Solubility (tapinarof saturated solubility) ([4]; in Diethyl sebacate): 488 mg/g
Solubility (tapinarof saturated solubility) ([4]; in Diisopropyl adipate): 187 mg/g
Solubility (tapinarof saturated solubility) ([4]; in Dimethyl isosorbide): 496 mg/g
Solubility (tapinarof saturated solubility) ([4]; in Glycerol): 14 mg/g
Solubility (tapinarof saturated solubility) ([4]; in Hexylene glycol): 386 mg/g
Solubility (tapinarof saturated solubility) ([4]; in Isopropyl alcohol): 485 mg/g
Solubility (tapinarof saturated solubility) ([4]; in Isopropyl palmitate): 231 mg/g
Solubility (tapinarof saturated solubility) ([4]; in Medium chain triglycerides): 273 mg/g
Solubility (tapinarof saturated solubility) ([4]; in Mineral oil): 0.26 mg/g
Solubility (tapinarof saturated solubility) ([4]; in Phenoxyethanol): 381 mg/g
Solubility (tapinarof saturated solubility) ([4]; in Polyethylene glycol 400): 373 mg/g
Solubility (tapinarof saturated solubility) ([4]; in Polysorbate 80): 263 mg/g
Solubility (tapinarof saturated solubility) ([4]; in Propylene carbonate): 506 mg/g
Solubility (tapinarof saturated solubility) ([4]; in Propylene glycol): 444 mg/g
Solubility (tapinarof saturated solubility) ([4]; in Sorbitan oleate): 137 mg/g
Solubility (tapinarof saturated solubility) ([4]; in Water): 0.14 mg/g
Solubility (tapinarof saturated solubility) ([4]; in diethylene glycol monoethyl ether (DEGEE)): 526 mg/g
